Laboratory results from US20030109523A1, “Bicyclic antagonists selective for the alphavbeta3 integrin” (Wyeth, priority 1999, published 2003).
Structures can show the parent of a compound that is named as a salt. Where two headings read alike, the source gives them in different places. Ends that are not written are not given here. Peptide text beside a SMILES is read from it.

Legend:
αVβ3 integrin = molecular target: T1, αVβ3 integrin (Homo sapiens, UniProt P05106+P06756); assay: Osteopontin-αVβ3 Cell Attachment Test Procedure; type: cell-based
T1 construct: αVβ3-expressing cell lines are maintained by standard tissue culture techniques; endogenous in cells; host or cells: αVβ3-expressing cell lines
T1 sequence (P06756 31-889 limits assumed): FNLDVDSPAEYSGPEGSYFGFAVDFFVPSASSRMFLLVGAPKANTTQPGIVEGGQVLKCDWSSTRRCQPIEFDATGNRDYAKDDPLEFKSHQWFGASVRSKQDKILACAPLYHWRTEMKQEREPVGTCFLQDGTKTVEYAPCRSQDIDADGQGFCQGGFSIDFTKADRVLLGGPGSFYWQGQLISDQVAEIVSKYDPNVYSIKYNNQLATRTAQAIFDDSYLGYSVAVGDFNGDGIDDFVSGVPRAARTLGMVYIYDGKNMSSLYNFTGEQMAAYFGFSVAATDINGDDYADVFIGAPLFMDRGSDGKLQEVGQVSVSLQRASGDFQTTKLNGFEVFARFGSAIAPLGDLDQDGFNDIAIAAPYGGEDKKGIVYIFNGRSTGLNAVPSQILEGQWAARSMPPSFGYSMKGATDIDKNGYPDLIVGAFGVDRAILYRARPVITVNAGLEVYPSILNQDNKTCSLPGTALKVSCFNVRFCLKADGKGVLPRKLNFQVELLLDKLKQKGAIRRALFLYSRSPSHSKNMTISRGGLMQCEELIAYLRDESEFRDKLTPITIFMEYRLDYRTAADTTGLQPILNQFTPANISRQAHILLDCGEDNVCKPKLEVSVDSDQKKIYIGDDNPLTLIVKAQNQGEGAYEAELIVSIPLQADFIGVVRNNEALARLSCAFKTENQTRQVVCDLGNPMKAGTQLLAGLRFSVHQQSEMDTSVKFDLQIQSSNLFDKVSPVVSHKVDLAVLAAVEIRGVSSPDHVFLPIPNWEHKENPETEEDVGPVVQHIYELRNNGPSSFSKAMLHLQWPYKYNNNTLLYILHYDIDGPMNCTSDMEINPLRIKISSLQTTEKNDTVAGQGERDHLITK
T1 sequence (P06756 891-1048 partner limits assumed): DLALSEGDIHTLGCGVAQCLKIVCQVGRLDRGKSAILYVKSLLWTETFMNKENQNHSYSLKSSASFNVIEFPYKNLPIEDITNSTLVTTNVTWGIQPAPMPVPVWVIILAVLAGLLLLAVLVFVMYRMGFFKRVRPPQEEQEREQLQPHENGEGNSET
T1 sequence (P05106 27-788): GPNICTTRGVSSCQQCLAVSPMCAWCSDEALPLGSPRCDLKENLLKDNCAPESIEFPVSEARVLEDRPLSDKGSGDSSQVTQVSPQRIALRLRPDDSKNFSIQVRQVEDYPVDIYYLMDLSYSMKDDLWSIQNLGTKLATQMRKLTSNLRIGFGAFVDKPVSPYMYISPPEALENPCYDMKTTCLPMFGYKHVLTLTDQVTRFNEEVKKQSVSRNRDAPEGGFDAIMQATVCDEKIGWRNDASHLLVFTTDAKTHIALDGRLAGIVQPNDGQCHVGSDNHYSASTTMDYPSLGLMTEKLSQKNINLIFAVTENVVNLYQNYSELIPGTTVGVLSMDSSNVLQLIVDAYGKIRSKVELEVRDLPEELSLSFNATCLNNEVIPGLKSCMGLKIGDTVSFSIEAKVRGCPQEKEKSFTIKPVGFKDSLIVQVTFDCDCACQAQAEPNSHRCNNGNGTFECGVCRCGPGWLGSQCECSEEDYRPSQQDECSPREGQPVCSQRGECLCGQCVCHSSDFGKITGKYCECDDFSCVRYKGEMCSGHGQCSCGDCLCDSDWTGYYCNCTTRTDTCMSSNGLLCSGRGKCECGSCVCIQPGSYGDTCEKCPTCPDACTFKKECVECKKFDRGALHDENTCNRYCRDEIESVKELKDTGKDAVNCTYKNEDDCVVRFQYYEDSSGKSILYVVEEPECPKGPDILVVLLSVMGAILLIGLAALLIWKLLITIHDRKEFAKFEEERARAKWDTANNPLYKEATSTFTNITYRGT
Procedure: Osteopontin-αVβ3 Cell Attachment Test Procedure
Measuring the effect of compounds on the RGD-dependent attachment of cells to osteopontin mediated by the αVβ3 integrin.
Following incubation the wells were aspirated and washed once with D-PBS; plates can either be used immediately or stored for up to 1 week at 4° C. Prior to assay, the wells were blocked with 1% bovine serum albumin (BSA) in cell suspension media for 1 hour at 37° C. Following the blocking period, wells were aspirated and washed once with D-PBS.
αVβ3-expressing cell lines are maintained by standard tissue culture techniques. […] The cells were pelleted by low-speed centrifugation and washed three times with 0.5 mg/mL trypsin inhibitor in D-PBS (Sigma). The final cell pellet was resuspended in cell suspension media at a concentration of 10^6 cells/mL.
Incubation: 100 μL of diluted test compound was added to osteopontin-coated wells (in triplicate) followed by 100 μL of cell suspension; background cell attachment was determined in uncoated wells. The plate was incubated at 25° C. in a humidified air atmosphere for 1.5 hours. Following the incubation period, the wells were gently aspirated and washed once with D-PBS.
Cell Number Detection: The number of cells attached was determined by an MTT dye conversion assay (Promega) according to the manufacturer's instructions. Briefly, MTT dye was diluted in cell suspension media (15:85) and 100 μL was added to each well. […] The assay plates were covered and incubated at 37° C. in a humidified air atmosphere overnight.
The individual well optical density was expressed as a percentage of the maximal attachment (% Max) wells minus background attachment, and reported as the mean ±standard deviation.

αIIbβ3 integrin = molecular target: T2, αIIbβ3 integrin (Homo sapiens, UniProt P05106+P08514); assay: ADP-Induced Platelet Aggregation; type: cell-based; settings: for IC50: ADP 20 uM, human platelets; for remaining activity at 200 µM: percent of maximal aggregation; for ability to inhibit ADP induced platelet aggregation: reference peptides, at 200 μM
T2 construct: Human Platelets: Platelet-enriched plasma was obtained commercially from a donor pool; from tissue; host or cells: human platelet-rich plasma from a commercial donor pool
T2 sequence (P08514 32-887 limits assumed): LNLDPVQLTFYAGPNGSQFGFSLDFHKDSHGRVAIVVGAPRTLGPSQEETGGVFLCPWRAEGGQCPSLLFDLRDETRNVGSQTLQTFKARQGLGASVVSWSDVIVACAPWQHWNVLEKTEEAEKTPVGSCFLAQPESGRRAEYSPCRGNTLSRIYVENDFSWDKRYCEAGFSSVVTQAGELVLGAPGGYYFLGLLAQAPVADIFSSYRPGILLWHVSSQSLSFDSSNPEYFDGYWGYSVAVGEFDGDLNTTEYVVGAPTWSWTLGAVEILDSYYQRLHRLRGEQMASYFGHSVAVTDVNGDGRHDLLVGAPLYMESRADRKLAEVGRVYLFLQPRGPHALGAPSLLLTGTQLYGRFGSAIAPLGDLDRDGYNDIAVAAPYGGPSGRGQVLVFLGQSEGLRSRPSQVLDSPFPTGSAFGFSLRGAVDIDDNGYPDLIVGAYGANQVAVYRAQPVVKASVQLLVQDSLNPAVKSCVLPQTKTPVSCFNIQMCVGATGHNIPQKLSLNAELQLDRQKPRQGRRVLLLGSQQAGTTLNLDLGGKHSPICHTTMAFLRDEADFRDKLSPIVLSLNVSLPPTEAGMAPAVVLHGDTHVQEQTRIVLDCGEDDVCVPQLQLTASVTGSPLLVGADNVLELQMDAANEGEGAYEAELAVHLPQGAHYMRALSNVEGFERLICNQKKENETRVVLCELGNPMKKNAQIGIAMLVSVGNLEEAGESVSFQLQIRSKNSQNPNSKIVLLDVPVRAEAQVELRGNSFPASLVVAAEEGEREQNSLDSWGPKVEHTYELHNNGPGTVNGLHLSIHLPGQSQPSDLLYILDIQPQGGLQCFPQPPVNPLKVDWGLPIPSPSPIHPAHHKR
T2 sequence (P08514 891-1039 partner limits assumed): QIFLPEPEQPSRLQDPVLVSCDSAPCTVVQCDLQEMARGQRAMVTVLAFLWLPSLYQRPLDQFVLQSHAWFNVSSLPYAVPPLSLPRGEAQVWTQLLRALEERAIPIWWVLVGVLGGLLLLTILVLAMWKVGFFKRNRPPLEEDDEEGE
T2 sequence (P05106 27-788): as the sequence (P05106 27-788) above
Procedure: Measurement of the Effect of Compounds on ADP-Induced Platelet Aggregation
Measuring the effect of compounds on ADP-induced platelet aggregation mediated by a fibrinogen-αIIbβ3 integrin interaction.
Human Platelets: Platelet-enriched plasma was obtained commercially from a donor pool. The plasma was tested prior to shipment and found to be negative for HIV, HCV and Hepatitis B. Platelet-rich plasma (PRP) was obtained by diluting plasma to an approximate final concentration of 3×10(6) platelets per mL in platelet poor plasma (PPP). PPP was the supernatant of a lowspeed centrifugation of plasma.
Adenosine diphosphate (ADP): ADP was obtained commercially and diluted to 1 mM (stock solution) in distilled, deionized water (ddH2O).
Incubation: PRP and PPP were prewarmed in a water bath at 37° C. […] PRP plus sample compound in a final volume of 500 uL was added to a pre-warmed cuvette in a ChronoLog aggregometer. A control containing PRP and 5 uL of vehicle was treated similarly to the test cuvette; final vehicle concentration was 1%. The two cuvettes were incubated with stirring (1000 rpm) at 37° C. for 5 minutes. Five hundred microliters of PPP was used as a reference (100% aggregation).
Aggregation: To begin the test, ADP was added yielding a final concentration of 20 uM to both samples (plus and minus sample compound). Light transmittance was monitored continuously and compared to the reference cuvette. After five minutes, the test was terminated and the slope and maximal amplitude of the resulting aggregation plot was calculated by the aggregometer.
The percent of maximal aggregation is the ratio of the maximal aggregations of the sample cuvette to the control multiplied by 100 (% Max) and reported as the mean+−standard deviation.

[1] = molecular target: T3, Vitronectin Receptor (αVβ3) (Homo sapiens, UniProt P05106+P06756); assay: Vitronectin Receptor (αVβ3) Binding Test Procedure
T3 construct: expressed in transfected cells; host or cells: 512P5 cells (plasma membrane preparation)
T3 sequence (P06756 31-889 limits assumed): as the sequence (P06756 31-889 limits assumed) above
T3 sequence (P06756 891-1048 partner limits assumed): as the sequence (P06756 891-1048 partner limits assumed) above
T3 sequence (P05106 27-788): as the sequence (P05106 27-788) above

osteoclasts = assay: Osteoclast Bone Pitting; type: cell-based, rat
Procedure: Osteoclast Bone Pitting The test procedure was conducted as described by R. J. Murrills and D. W. […] At this pH the adherent osteoclasts excavate an adequate number of resorption pits for assay purposes. Slices were fixed in 2.5% glutaraldehyde and osteoclasts counted following tartrate-resistant acid phosphatase staining. […] All cells were stripped from the slice by sonication on 0.25M NH4OH and the resorption pits formed by the osteoclasts during the experiment stained with toluidine blue. Resorption pits were quantified by manually counting. The experiments were conducted according to a block design with osteoclasts from each animal exposed to each treatment. Three replicate slices were used per treatment per animal, such that a total of 96 slices were examined for an experiment involving four animals and eight treatments (including control). Several parameters were recorded on a “per slice” basis: number of pits, number of osteoclasts, number of pits per osteoclast, number of fibroblast-like bone cells. SAS or JMP statistical software were used for statistical analysis. […] IC50s were calculated using dose-response curves.

[2] = @ 100 μM, % of maximal attachment, read-out: (αVβ3) CELL ATTACHMENT, % @ concentration
[3] = Table VII, read-out: Platelet Aggregation αIIbβ3 IC50
[4] = % Max = percentage of the specific binding, read-out: (αVβ3) RECEPTOR BINDING, % @ concentration
[5] = attachment of cells to osteopontin, read-out: (αVβ3) IC50 CELL ATTACHMENT
[6] = read-out: (αVβ3) IC50 RECEPTOR BINDING
[7] = reference compounds, Table VI, read-out: IC50 (95% Confidence Interval)
[8] = reference RGD peptides, 125I-Echistatin 50 pM, read-out: IC50

Molecule: CCOC(=O)CC1CCc2cc(OCCCNC(=N)N)ccc2C1 (centres unmarked) [Example 31, [6-(3-Guanidinopropoxy)-1,2,3,4-tetrahydro-napthalen-2-yl]-acetic Acid Ethyl Ester]
- remaining activity at 100 µM (αVβ3 integrin; [2]): 100%
- IC50 (αIIbβ3 integrin; [3]): 160 µM
- remaining activity at 30 µM [1, 4]: 88%

Molecule: N=C(N)NCCCOc1ccc2c(c1)CC(CC(=O)O)CC2.O=C(O)C(F)(F)F (centres unmarked) [Example 40, [7-(3-Guanidino-propoxy)-1,2,3,4-tetrahydro-napthalen-2-yl]-acetic Acid Trifluoroacetate]
- IC50 (αVβ3 integrin; [5]): 47 µM
- BONE PITTING INHIBITION (osteoclasts; @ 238 μM): 39%@238
- IC50 (αIIbβ3 integrin; [3]): 148 µM
- (αVβ3) RECEPTOR BINDING, % @ concentration [1]: 130% @30

Molecule: N=C(N)NCCOc1ccc2c(c1)CCCC(CC(=O)O)C2 (centres unmarked) [Example 61, [2-(2-Guanidino-ethoxy)-6,7,8,9-tetrahydro-5H-benzocyclohepten-6-yl]-acetic Acid Hydrochloride]
- IC50 (αVβ3 integrin; [5]): 62.2 µM
- inhibition at 271 µM (osteoclasts; Rattus norvegicus, Osteoclast, @ 271 μM): 32%
- remaining activity at 200 µM (αIIbβ3 integrin; Table VII): 85.3%
- IC50 [1, 6]: 1.7 µM

Molecule: N=C(N)NCCCCOc1ccc2c(c1)CCCC(CC(=O)O)C2 (centres unmarked) [Example 63, [2-(4-Guanidino-butoxy)-6,7,8,9-tetrahydro-5H-benzocyclohepten-6-yl]-acetic Acid Trifluoroacetate]
- IC50 (αVβ3 integrin; [5]): 32.8 µM
- remaining activity at 200 µM (αIIbβ3 integrin; Table VII): 51.5%
- IC50 [1, 6]: 3.9 µM

Molecule: N=C(N)NCCOc1ccc2c(c1)NC(=O)C(CC(=O)O)C2 (centres unmarked) [Example 85, [7-(2-Guanidino-ethoxy)-2-oxo-1,2,3,4-tetrahydro-quinolin-3-yl]-acetic Acid Hydrochloride]
- IC50 (αVβ3 integrin; [5]): 111 µM
- inhibition at 273 µM (osteoclasts; Rattus norvegicus, Osteoclast, @ 273 μM): 33%
- remaining activity at 200 µM (αIIbβ3 integrin; Table VII): 93.3%
- IC50 [1, 6]: 15.7 µM

Molecule: N=C(N)NCCCC#Cc1ccc2c(c1)NC(=O)C(CC(=O)O)C2 (centres unmarked) [Example 101, [7-(5-Guanidino-pent-1-ynyl)-2-oxo-1,2,3,4-tetrahydro-quinolin-3-yl]-acetic Acid Trifluoroacetate]
- IC50 (αVβ3 integrin; [5]): 11.5 µM
- inhibition at 221 µM (osteoclasts; Rattus norvegicus, Osteoclast, @ 221 μM): 51%
- IC50 (αIIbβ3 integrin; [3]): 107 µM
- IC50 [1, 6]: 8.9 µM

Molecule: N=C(N)NCCOc1ccc2cc(CC(=O)O)c(=O)[nH]c2c1 [Example 185, [7-(2-Guanidino-ethoxy)-2-oxo-1,2-dihydro-quinolin-3-yl]-acetic Acid]
- remaining activity at 20 µM (αVβ3 integrin; @ 20 μM, % of maximal attachment, read-out: (αVβ3) CELL ATTACHMENT, % @ concentration): 102%
- remaining activity at 100 µM (αVβ3 integrin; [2]): 96.8%
- inhibition at 239 µM (osteoclasts; Rattus norvegicus, Osteoclast, @ 239 μM): 58%
- remaining activity at 200 µM (αIIbβ3 integrin; Table VII): 94.8%

Molecule: COC(=O)CC1CCc2cc(OCCCNc3ncccn3)ccc2C1 (centres unmarked) [Example 212, {6-[3-(Pyrimidin-2-ylamino)-propoxy]-1,2,3,4-tetrahydro-naphthalen-2-yl}-acetic Acid Methyl Ester]
- remaining activity at 3 µM ([1]; @ 3 μM, % Max = percentage of the specific binding, read-out: (αVβ3) RECEPTOR BINDING, % @ concentration): 98.7%
- remaining activity at 10 µM ([1]; @ 10 μM, % Max = percentage of the specific binding, read-out: (αVβ3) RECEPTOR BINDING, % @ concentration): 98.3%
- remaining activity at 30 µM [1, 4]: 102%
- remaining activity at 100 µM [1, 4]: 99.3%

Molecule: O=C(O)CC1CCc2cc(OCCCNc3ncccn3)ccc2C1 (centres unmarked) [Example 213, {6-[3-(Pyrimidin-2-ylamino)-propoxy]-1,2,3,4-tetrahydro-naphthalen-2-yl}-acetic Acid]
- remaining activity at 100 µM [1, 4]: 54%

Molecule: CCOC(=O)CC1CCc2cc(OCCCNC3=NCCCN3)ccc2C1 (centres unmarked) [Example 216, {6-[3-(1,4,5,6-Tetrahydro-pyrimidin-2-ylamino)-propoxy]-1,2,3,4-tetrahydro-naphthalen-2-yl}-acetic Acid Ethyl Ester, Acetic Acid Salt]
- inhibition at 200 µM (osteoclasts; Rattus norvegicus, Osteoclast, @ 200 μM): 95%
- IC50 [1, 6]: 60 µM

Molecule: Cc1ccc(S(=O)(=O)NC(=O)CC2CCc3cc(OCCCNC4=NCCCN4)ccc3C2)cc1 (centres unmarked) [Example 217, 4-Methyl-N-({6-[3-(1,4,5,6-tetrahydro-pyrimidin-2-ylamino)-propoxyl]1,2,3,4-tetrahydro-naphthalen-2-yl}-acetyl)-benzenesulfonamide, Trifluoroacetic Acid Salt]
- inhibition at 1 µM (osteoclasts; Rattus norvegicus, Osteoclast, @ 1 μM): 51%
- remaining activity at 200 µM (αIIbβ3 integrin; Table VII): 98%
- IC50 [1, 6]: 14.7 µM

Molecule: N=C(N)NCCOc1ccc2c(c1)CC(CCC(=O)O)C(=O)N2 (centres unmarked) [Example 222, 3-[6-(2-Guanidino-ethoxy)-2-oxo-1,2,3,4-tetrahydro-quinolin-3-yl]-propionic Acid]
- remaining activity at 100 µM (αVβ3 integrin; [2]): 100%
- inhibition at 22 µM (osteoclasts; Rattus norvegicus, Osteoclast, @ 22 μM): -58%
- remaining activity at 200 µM (αIIbβ3 integrin; Table VII): 90.3%

Molecule: N=C(N)NCCC[C@H](NC(=O)CN)C(=O)NCC(=O)N[C@@H](CC(=O)O)C(=O)N[C@@H](CO)C(=O)N1CCC[C@H]1C(=O)O [GRGDSP, reference compound]
- ability to inhibit ADP induced platelet aggregation (αIIbβ3 integrin; Table VI): Inactive at 200

Molecule: N=C(N)NCCC[C@H](N)C(=O)NCC(=O)N[C@@H](CC(=O)O)C(=O)N[C@@H](Cc1ccccc1)C(=O)O [RGDF, reference compound] (H-RGDF-OH; N-terminus and C-terminus assumed)
- IC50 (αIIbβ3 integrin; [7]): 97.6 µM

Molecule: Calcitonin: anti-resorptive used in the clinic; reference compound of the bone pitting test is Rat Calcitonin (CGNLSTCMLGTYTQDLNKFHTFPQTSIGVGAP; ends and bridges not checked; cysteine pairing not given here; UniProt P01257 85-116, looked up) [reference compound]
- osteoclast inhibitory activity in this test procedure (osteoclasts; statement in words): significant osteoclast inhibitory activity

Molecule: Echistatin [reference compound]
- IC50 (αIIbβ3 integrin; [7]): 0.0156 µM

Molecule: GRGDNP [GRGDNP, reference compound]
- ability to inhibit ADP induced platelet aggregation (αIIbβ3 integrin; Table VI): Inactive at 200
- IC50 [1, 8]: 0.237 µM

Molecule: GRGDTP [GRGDTP, reference compound]
- IC50 (αVβ3 integrin): 5.2 µM
- ability to inhibit ADP induced platelet aggregation (αIIbβ3 integrin; Table VI): Inactive at 200
- IC50 [1, 8]: 0.49 µM

Molecule: GRGESP [reference compound]
- ability to inhibit ADP induced platelet aggregation (αIIbβ3 integrin; Table VI): Inactive at 200
- ability to inhibit αVβ3 binding ([1]; reference peptide, at 100 μm): inactive at 100 μm

Molecule: [7-(2-Guanidino-ethoxy)-2-oxo-1,2-dihydro-quinolin-3-yl]propionic Acid Methyl Ester [Example 246]
- (αVβ3) CELL ATTACHMENT, % @ concentration (αVβ3 integrin; @ 20 μM, % of maximal attachment): 102%@ 20
- (αVβ3) CELL ATTACHMENT, % @ concentration (αVβ3 integrin; @ 100 μM, % of maximal attachment): 84.2%@ 100
- BONE PITTING INHIBITION (osteoclasts; @ 26.2 μM): 52%@ 26.2
